Laboratory results from patent publication US8822519B2, “Compound with agitation effect on peroxisome proliferator-activated receptor process for its preparation and use thereof” (Zhejiang Hisun Pharmaceutical Co., Ltd., priority 2008, dated 2014).
Blank lines part the entries; values can stand above or below the compound they belong to.

Experiments:
[1] = Pharmacokinetics: plasma concentration-time curve; format: in vivo; conditions: both sexes, rat, plasma, oral, SD rats, gastric lavage, 50, 10 and 2 mg/kg
Method: The dosing volume was 10 ml/kg, and blood samples of 0.4-0.5 ml were taken from the vena orbitalis posterior of the waken animals at different time points post-gastric lavage and centrifuged at 5000 rpm for 10 min. 200 μL of plasma sample was precisely measured, then supplemented with 200 μL acetonitrile, vortexed to evenness, left stand for 5 min, and centrifuged (14000 rpm, 5 min). The supernatant was collected and then centrifuged again (14000 rpm, 5 min). The resulting supernatant was gathered and subjected to HPLC injection. Time points for blood sampling were respectively: 0, 0.5, 1, 2, 4, 6, 8, 10, 12, 24, 36, 48 and 72 h, and the peak area for each time point was the average of those obtained from 6 rats at the same time point. Plasma concentrations were calculated and the medicament concentration-time curve was plotted.

Tissue distribution = format: in vivo, SD rats
Method: 18 of SD rats were fasting for 16 h with free access for water, assigned them into 3 groups with 6 animals/group with a female-to-male ratio of 1:1; they were dosed with HS060098 (10 mg/kg), then the animals were sacrificed at 1, 10, and 24 h after dosing, and the heart, liver, spleen, lung, kidney in each animal were removed rapidly. The tainted blood on the surface of the organ was washed off immediately with physiological saline. The tissue from the organ was dissected apart, washed thoroughly, blotted off, weighed, supplemented with physiological saline at 400 mg/ml, homogenized in an ice bath for 1 min, and centrifuged at 3750 rpm for 20 min. 400 μl of the supernatant was pipetted precisely, followed by addition of 40 μl of an inner standard (HS060001 used as the inner standard with a molar concentration of 5 mmol/L), diluted with 3 ml of purified water, vortexed to homogeneity, and loaded onto a column (SPE C18 column was firstly washed with 3 ml of purified water, and sequentially with 3 ml of 10% methanol for activation). The column was rinsed with 3 ml of purified water at 1 ml/min, and then eluted with 3 ml of a elutant (methanol: purified water=9:1). The eluate was collected and blow-dried under a nitrogen flow at 45° C. The residue was dissolved in 400 μl of acetonitrile and then a HPLC insert was placed and followed by injection of the sample.

PPARδ = target: T1, PPARδ (Homo sapiens, UniProt Q03181); test: In vitro screening of nuclear receptor agonist: luciferase reporter gene assay in HepG2 cells; format: cell-based; conditions: RXR/PPARδ luciferase reporter gene, 24 h treatment
T1 construct: expressed in transfected cells; host or cells: HepG2 (human hepatocarcinoma, ATCC)
T1 sequence (Q03181 1-441): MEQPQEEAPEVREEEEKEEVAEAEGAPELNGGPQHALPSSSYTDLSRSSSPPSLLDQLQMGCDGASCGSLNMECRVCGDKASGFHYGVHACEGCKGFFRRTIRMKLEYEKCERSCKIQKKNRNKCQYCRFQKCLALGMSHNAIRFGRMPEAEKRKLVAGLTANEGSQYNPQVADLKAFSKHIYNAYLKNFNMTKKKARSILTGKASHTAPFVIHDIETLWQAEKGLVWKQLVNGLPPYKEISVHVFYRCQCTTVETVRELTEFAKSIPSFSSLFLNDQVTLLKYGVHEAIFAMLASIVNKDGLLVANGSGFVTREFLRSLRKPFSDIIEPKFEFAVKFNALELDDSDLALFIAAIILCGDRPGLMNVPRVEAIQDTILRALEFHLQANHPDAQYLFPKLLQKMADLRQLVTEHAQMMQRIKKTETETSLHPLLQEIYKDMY
T1 sequence (P19793 1-462 partner): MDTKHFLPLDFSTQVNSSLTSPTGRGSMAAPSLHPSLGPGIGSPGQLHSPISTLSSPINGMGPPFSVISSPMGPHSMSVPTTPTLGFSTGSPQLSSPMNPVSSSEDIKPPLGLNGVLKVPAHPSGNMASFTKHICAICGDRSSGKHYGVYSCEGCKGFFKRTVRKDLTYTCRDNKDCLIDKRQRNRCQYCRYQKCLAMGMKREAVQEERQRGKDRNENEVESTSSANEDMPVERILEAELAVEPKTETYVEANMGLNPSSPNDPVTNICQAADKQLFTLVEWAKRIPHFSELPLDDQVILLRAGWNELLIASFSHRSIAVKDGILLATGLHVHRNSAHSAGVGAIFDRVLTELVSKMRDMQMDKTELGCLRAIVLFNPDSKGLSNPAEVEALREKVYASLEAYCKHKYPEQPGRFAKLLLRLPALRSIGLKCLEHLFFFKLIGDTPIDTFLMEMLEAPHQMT
Text: Using a reporter gene protocol, the screening model for screening a nuclear receptor agonist in a living cell is designed on a basis of the principal that an activated nuclear receptor can activate transcription of its downstream gene. A reporter gene plasmid is constructed, in which the DNA binding sequence for the nuclear receptor (NRE) is inserted upstream of the luciferase gene, so that the expression of the luciferase gene is placed under the control of the nuclear receptor. Then, the reporter gene plasmid and the nuclear receptor are simultaneously transferred into a cell, and the nuclear receptor is activated when the nuclear receptor agonist is present in the cell culture medium. Then the activated receptor is able to induce the expression of the luciferase gene, while the amount of the luciferase can be determined through its luminous substrate. In this way, the intensity of activation by the compound on the nuclear receptor could be known by observing the luminescence intensity.
The specific operation is described as follows:
The experiment reagents: the compounds to be tested (20 mM, in DMSO, stored at −80° C.).
The hepatocarcinoma cell HepG2 (from ATCC, American Type Culture Collection) was cultured in DMEM medium supplemented with 10% heat-inactivated fetal bovine serum (FBS, Invitogen, Grand Island, N.Y., USA) in a T-75 culture bottle (Greiner, Germany) in a incubator at 37° C., the relative humidity of 100%, and 5% CO2. When the cell culture in the culture bottle reached 80-90% confluency, it was digested with 0.25% Trypsin (with EDTA) for 3 min and inoculated into a 96-well cell culture plate at an inoculating density of 2000 cells/100 μl/well.
In the next day, when the cells in the 96-well culture plate grew up to 50-80% confluency, cell transfection was performed. The cell co-transfection system comprised the FuGene6 transfection agent (Roche Molecular Biochemicals, Indianapolis, Ind., U.S.A.) and 60 ng DNA (long of hRXR, 10 ng of pCMV βGal, 10 ng of the nuclear receptor expression plasmid RXR/PPARδ, 30 ng of GFP fluorescence reporter gene plasmid, respectively).
The cell culture medium was discarded immediately at 24 hours post-transfection and replaced by 200 μl of a fresh DMEM medium containing the medicament to be tested (with 10% FBS treated by activated carbon).
24 h after treatment with the medicament, the cells were lysed with a lysis solution (Cell Culture Lysis buffer, Promega) and centrifuged, and the supernatant was collected. The supernatant was treated with a fluorescence detection kit (Promega) and counted by a fluorescence meter (Ascent Fluoroskan FL reader, Thermo Labsystems, Finland), and the relative intensity of the luciferase was determined. For assaying the β-galactosidase activity used in the experiment as the inner reference (the inner reference calibrating for the transfection efficiency), 50 μl of the supernatant was transferred into a fresh microplate and treated with the Promega kit and read at a wavelength of 405 nm from a microplate reader (Bio-tech Instruments Inc., Winooski, Vt., USA) (Sauerberg, P.; Olsen, G. S.; Jeppesen, L.; Mogensen, J. P. et al., J. Med. Chem., 2007, 50, 1495-1503).
The median effective concentration (EC50) of a sample is a concentration at which the sample has 50% pharmacological effect. This value is one of the important parameters for evaluating pharmacological effects of a compound. In the present screening process, the EC50 of a sample was calculated according to the activation of the receptor by the sample at six different concentrations.

[2] = clinical research, Oliver et al. 2001; cited from earlier work
[3] = distribution in organs, SD rats, 10 mg/kg

- half-life [1]: 26 to 28 h
- bioavailability ([1]; read-out: bioavailability): 15%
- Heart (Tissue distribution; [3]): 6%
- Kidney (Tissue distribution; [3]): 9%
- Liver (Tissue distribution; [3]): 65%
- Lung (Tissue distribution; [3]): 11%
- Spleen (Tissue distribution; [3]): 9%
- tissue distribution (Tissue distribution; in words): distribute mainly in liver
- EC50 (PPARδ): 468 nM
Structure (SMILES): Cc1cc(OC(c2ccccc2)c2nn(-c3ccc(C(F)(F)F)cc3)c(=O)n2C)ccc1OCC(=O)O (stereo not drawn) [Compound A-1, 2-(2-methyl-4-(1-(3-(4-methyl-5-oxo-1-(4-trifluoromethyl-phenyl)-4,5-dihydrogen-1H-1,2,4-triazolyl))-benzyloxy)-phenoxy)-acetic acid]

- EC50 (PPARδ): 20 nM
Structure (SMILES): Cc1cc(SC(C)(C)C(=O)O)ccc1OC(c1ccccc1)c1nn(-c2ccc(C(F)(F)F)cc2)c(=O)n1C (stereo not drawn) [Compound A-15, 2,2-dimethyl-2-(3-methyl-4-(1-(3-(4-methyl-5-oxo-1-(4-trifluoromethyl-phenyl)-4,5-dihydrogen-1H-1,2,4-triazolyl))-benzyloxy)-phenylthio)-acetic acid]

- EC50 (PPARδ): 1 nM
Structure (SMILES): Cc1cc(SC(c2ccccc2)c2nn(-c3ccc(C(F)(F)F)cc3)c(=O)n2C)ccc1OC(C)(C)C(=O)O (stereo not drawn) [Compound A-16, 2,2-dimethyl-2-(2-methyl-4-(1-(3-(4-methyl-5-oxo-1-(4-trifluoromethyl-phenyl)-4,5-dihydrogen-1H-1,2,4-triazolyl))-benzylthio)-phenoxy)-acetic acid]

- EC50 (PPARδ): < 1 nM
Structure (SMILES): CCCCn1c(C(Oc2ccc(SCC(=O)O)cc2C)c2ccccc2)nn(-c2ccc(C(F)(F)F)cc2)c1=O (stereo not drawn) [Compound A-17, 2-(3-methyl-4-(1-(3-(4-n-butyl-5-oxo-1-(4-trifluoromethyl-phenyl)-4,5-dihydrogen-1H-1,2,4-triazolyl))-benzyloxy)-phenylthio)-acetic acid]

- EC50 (PPARδ): < 1 nM
Structure (SMILES): CCCCn1c(C(Sc2ccc(OC(C)(C)C(=O)O)c(C)c2)c2ccccc2)nn(-c2ccc(C(F)(F)F)cc2)c1=O (stereo not drawn) [Compound A-18]

- EC50 (PPARδ): < 1 nM
Structure (SMILES): CCCCn1c(C(Sc2cc(C)c(OCC(=O)O)cc2C)c2ccccc2)nn(-c2ccc(C(F)(F)F)cc2)c1=O (stereo not drawn) [Compound A-19, 2-(2,5-dimethyl-4-(1-(3-(4-n-butyl-5-oxo-1-(4-trifluoromethyl-phenyl)-4,5-dihydrogen-1H-1,2,4-triazolyl))-benzylthio)-phenoxy)-acetic acid]

Structure (SMILES): Cc1cc(SCc2sc(-c3ccc(C(F)(F)F)cc3)nc2C)ccc1OCC(=O)O [GW501516]
- decrease the level of insulin [2]: up to 48%
- decrease the level of triglyceride (TG) [2]: up to 56%
- increase the level of high density lipoprotein (HDL) cholesterol [2]: up to 80%
- lower the level of low density lipoprotein (LDL) cholesterol [2]: up to 29%
